Laboratory results: US20110182946A1, “Formation of Nanostructured Particles of Poorly Water Soluble Drugs and Recovery by Mechanical Techniques” (BOARD OF REGENTS, THE UNIVERSITY OF TEXAS SYSTEM, priority 2008, published 2011)
≈ marks a conversion by molar mass, not a printed value.

How the values were obtained:
[1] = Equilibrium solubility of crystalline ITZ; format: physicochemical; details: thermodynamic from solid
[2] = pH 6.8 buffer without addition of 0.17% SDS; cited from earlier work

solubility thermodynamic ([1]; acidic media, pH 1.2, simulated gastric fluid): 4.4 µg/mL (≈ 6.24 µM) | solubility at 18 h ([1]; pH 6.8 phosphate buffer with 0.17% SDS, aqueous with cosolvent or surfactant or cyclodextrin, pH 6.8 media with 0.17% SDS, 37.2° C.): 14 µg/mL (≈ 19.8 µM)
Structure (SMILES): CCC(C)n1ncn(-c2ccc(N3CCN(c4ccc(OCC5COC(Cn6cncn6)(c6ccc(Cl)cc6Cl)O5)cc4)CC3)cc2)c1=O (stereo not drawn) [ITZ, itraconazole]
equilibrium solubility [2]: about 1 ng/mL
